Source: US20180238860A1, “INDIVIDUAL METHOD PREDICTIVE OF THE DNA-BREAKING GENOTOXIC EFFECTS OF CHEMICAL OR BIOCHEMICAL AGENTS” (priority 2015, published 2018)

Experiments:
[1] = tested on: 08HNG cells; test: pH2AX foci 24 h after contacting, 08HNG; format: cell-based, human
Method: (§1) In one embodiment, on receipt, the tissue sample (typically the biopsy) is established in the form of an amplifiable cell line without a viral or chemical transformation agent according to an ancillary procedure well known to culture laboratories, as underlined by the publication of Elkind et al. “The radiobiology of cultured mammalian cell”, Gordon and Breach (1967). Once the number of cells is sufficient (typically after 1 to 3 weeks), the first experiments are carried out using the process according to the invention. A cell sample is prepared: The cells are inoculated on glass coverslips in Petri dishes. A portion of these coverslips are contaminated with metals or pesticides or any other DNA-breaking chemical or biochemical agent at different concentrations. A further portion is not contaminated; it represents the spontaneous state. During contamination, the cells remain in the culture incubator at 37° C.
For the contaminated cells, characteristics are acquired corresponding to the state after an incubation time with the DNA-breaking chemical or biochemical agent. Said characteristics are represented by foci corresponding to the marker pH2AX. The cells on glass coverslips are then fixed, lysed and hybridized. The following procedure, known per se (Bodgi et al, “A single formula to describe radiation-induced protein relocalization: towards a mathematical definition of individual radiosensitivity”, J Theor Biol. 21 p 333:135-45.2013):
the cells are fixed in 3% paraformaldehyde and 2% sucrose for 15 minutes at ambient temperature and permeabilized in 20 mM HEPES buffer solution (4-(2-hydroxyethyl)-1-piperazine ethane sulfonic acid) at pH 7.4, 50 mM NaCl, 3 mM MgCl2, 300 mM sucrose, 0.5% Triton X-100 (a non-ionic surfactant having the formula t-Oct-C6H4-(OCH2CH2)×OH where x=9-10, CAS No. 9002-93-1, supplied for example by Sigma Aldrich) for 3 minutes. The glass coverslips are then washed in phosphate buffer saline (known as the acronym PBS) before immunological staining. The incubation took place for 40 min at 37° C. in PBS supplemented with 2% bovine serum albumin (known as the acronym BSA or fraction V, supplied for example by Sigma Aldrich) and was followed by a wash with PBS. Anti-pH2AX primary antibodies are used at a concentration of 1:800. […]
The results are acquired using these coverslips on an immunofluorescence microscope (Olympus model for example). The reading may be direct (typically by counting the foci on at least 50 cells in G0/G1 for each point) or using dedicated image analysis software, or on an automated microscope; preferably the software or automated microscope methods are calibrated with manual determinations. […]

[2] = tested on: 08HNG cells; test: Micronuclei per 100 cells 24 h after contacting, 08HNG; format: cell-based, human
Method: as §1
the cells are fixed in 3% paraformaldehyde and 2% sucrose for 15 minutes at ambient temperature and permeabilized in 20 mM HEPES buffer solution (4-(2-hydroxyethyl)-1-piperazine ethane sulfonic acid) at pH 7.4, 50 mM NaCl, 3 mM MgCl2, 300 mM sucrose, 0.5% Triton X-100 (a non-ionic surfactant having the formula t-Oct-C6H4-(OCH2CH2)×OH where x=9-10, CAS No. 9002-93-1, supplied for example by Sigma Aldrich) for 3 minutes. The glass coverslips are then washed in phosphate buffer saline (known as the acronym PBS) before immunological staining. The incubation took place for 40 min at 37° C. in PBS supplemented with 2% bovine serum albumin (known as the acronym BSA or fraction V, supplied for example by Sigma Aldrich) and was followed by a wash with PBS. Anti-pH2AX primary antibodies are used at a concentration of 1:800. The incubations with anti-mouse FITC or anti-rabbit TRITC secondary antibodies (1:100, supplied by Sigma Aldrich) were performed at 37° C. in 2% BSA for 20 minutes. Glass coverslips were treated with Vectashield™ containing DAPI (4,6-Diamidino-2-phenylindole) to label the nucleus. Staining with DAPI also makes it possible, indirectly, to determine the number of cells in phase G1 (nuclei with homogenous DAPI staining), in phase S (nuclei with numerous pH2AX foci), in phase G2 (nuclei with heterogeneous DAPI staining) and metaphases (visible chromosomes).
Counterstaining with DAPI (a DNA marker known to those skilled in the art) makes it possible to locate the nucleus to situate the cytoplasmic or nuclear location to quantify the micronuclei, which are complementary cell markers to the data on the foci.
The tables hereinafter summarize the results of numerous experiments which were carried out as described in the “Detailed description” section above. […]

Q: Which pH2AX ([1]; 0.3 μM) does the source give for c1ccc2[nH]c(-c3cscn3)nc2c1 [Thiobendazole] here?
A: 1.8 foci

Q: What about the pH2AX ([1]; 1 μM) of the same molecule?
A: 2 foci

Q: And the pH2AX ([1]; 3 μM)?
A: 4.3 foci

Q: What about the pH2AX ([1]; 10 μM) of the same molecule?
A: 6 foci

Q: And the Micronuclei ([2]; 0.3 μM)?
A: 2 per 100 cells

Q: What about the Micronuclei ([2]; 1 μM) of the same molecule?
A: 4 per 100 cells

Q: And the Micronuclei ([2]; 3 μM)?
A: 10 per 100 cells

Q: And the Micronuclei ([2]; 10 μM)?
A: 10 per 100 cells
